Experiments:
[1] = tested on: rd1 cones; assay: two-photon calcium imaging of cone cell bodies and axon terminals in wholemount rd1 retinas; type: cell-based, mouse
Source text: To measure if NIR light drives responses in cones, the inventors performed two-photon calcium imaging of individual cone cell bodies and axon terminals in wholemount rd1 retinas in three conditions: first, rTRPV1 with 915 nm nanorods, second, rTRPV without nanorods and third, 915 nm nanorods without rTRPV1. To detect calcium signals, the inventors genetically targeted the calcium indicator GCaMP6s to cones via AAV that expresses GCaMP6s under a cone-specific promoter (ProA7). GCaMP6s was expressed in 67±5.1% of rd1 cones (n=12,813 cones mm−2, n=8635 GCaMP6s positive cones mm−2, mean±s.d).
Near-infrared (NIR) pulses were produced by two custom-made, single wavelength NIR diode lasers emitting at 915 nm or 980 nm, modelled after J. Yao, B. Liu, and F. Qin. […] Total laser power output, as a function of driving voltage, was measured by placing cannula (CFM14L20) and patch cable (M37L02) output at the entrance of an integrating sphere photodiode power sensor (Thorlabs, S142C) with a PM100D read-out unit. Oscilloscope read-out of laser response time was obtained by applying a step control voltage to the lasers. […]
For two-photon calcium imaging of mouse cone photoreceptors, wild-type and rd1 retinas were isolated in oxygenated Ringer's medium. […] Fluorescence was analyzed semi-online via custom-made software written in Python by Z. Raics (A. Drinnenberg et al. Neuron 99, 117-134 e111 (2018)). […]

[2] = tested on: cone photoreceptors of the rd1 mouse; assay: AAV transduction of rd1 mouse cones after subretinal injection, quantified by immunofluorescence and confocal imaging; type: in vivo
Source text: The inventors targeted rTRPV1 to cone photoreceptors of the Pde6brd1 (known as rd1) mouse via subretinal injection of adeno-associated virus (AAV) and a photoreceptor-specific promoter (mCar) to restrict expression. Rd1 mice have severe photoreceptor degeneration with complete loss of rod and dysfunctional light-insensitive cone photoreceptors by four weeks of age postnatal (P28). 55±10% of rd1 cones expressed rTRPV1 in the cell membrane (n=12,813 cones mm−2, n=7042 TRPV1 positive cones mm−2, mean±s.d). 98±1.6% of rat TRPV1 positive cells were cones (n=7216 TRPV1 positive cells mm−2, n=7042 TRPV1 positive cones mm−2, mean±s.d).
Ocular injections to deliver AAVs expressing TRP variants and/or functionalized nanorods were performed on 4 week old mice anesthetized with 2.5% isoflurane. A small incision was made with a sharp 30 gauge needle at the nasal corneo-scleral junction and AAV and/or nanorods were co-injected through this incision into the subretinal space using a blunt 5 μL Hamilton syringe held in a micromanipulator. For cone photoreceptor activity monitoring, cone specific AAV-ProA7-GCaMP6s (11) was co-injected subretinally with rTRPV1 and/or nanorods. A maximum volume of 2.5 μL was administered per eye. For primary visual cortex activity monitoring, AAV-pCAG-FLEX2-tTA2 was delivered by intravenous retro-orbital injection as previously described by D. Hillier et al. Nat Neurosci 20, 960-968 (2017) 2 weeks after initial ocular injection of rTRPV1 and nanorods. […]
A Zeiss LSM 700 laser scanning confocal microscope was used to acquire images of antibody stained cells and tissues with an EC Plan-Neofluar 40×/1.30 oil M27 objective at up to 4 excitation laser lines according to secondary antibody specification. Expression was assessed from 1024×1024 pixel images in a z-stack with 0.75 μm steps. […] AAV transduction was quantified from retinal wholemounts. […] Quantification was performed separately for outer nuclear layer, inner nuclear layer and ganglion cell layer.

[3] = AAV, mCar promoter, subretinal injection, mean±s.d

TRPV1.465-6x-His: rat TRPV1 channel with 6x-His epitope tag inserted in the first extracellular loop after amino acid 465; delivered by AAV
reaction of rTRPV1 expressing cones to light without nanorods [1]: did not react to light | channel (TRPV1 or Ollas) positive cells that were cones [2, 3]: 98±1.6% | rd1 cones expressing the channel in the cell membrane [2, 3]: 55±10% | expression of the 6x-His tag in TRPV1 positive cones ([2]; rd1 mouse): All TRPV1 positive cones expressed the 6x-His tag

Source: patent publication US12622965B2, “Therapeutical tools and methods using temperature-sensitive receptors for treating blindness” (FRIEDRICH MIESCHER INSTITUTE FOR BIOMEDICAL RESEARCH, priority 2020, dated 2026)
